Measured values reported in patent US20250345378A1 (priority 2022, published 2025).
Where two headings read alike, the source gives them in different places.

How the values were obtained:
[1] = tested on: 304 E. coli clinical isolates; format: cell-based, Escherichia coli
Description: (§1) Phage cocktail CK618 was tested in combination with and alongside antibiotics against two isolate panels. The first assay used a panel of 88 contemporaneous urinary tract infection (UTI) isolates from North America, Europe, Latin America, and Asia. […] The second assay used a panel made up of a 300-strain clinical isolate panel (Table 14) with an additional 4 strains of interest. […] Four of the same SOC antibiotics tested against the 88-isolate panel were tested against this panel. The non-SOC antibiotics were not included due to their limited use in clinical settings, and nitrofurantoin was not included due to the low probability of resistance to this drug.
(§2) For both isolate panels, antibiotic concentrations tested were determined by using Clinical and Laboratory Standards Institute (CLSI) or European Committee on Antimicrobial Susceptibility Testing (EUCAST) breakpoints at concentrations that kill susceptible isolates but allow intermediate or resistant isolates to grow in the standard AST microdilution assay (Table 17).
(§3) The composition of the proposed Phase 2 CRISPR-enhanced bacteriophage (CRISPR-phage, hereafter termed ‘crPhage’) cocktail (CK618) has been updated from the CK570 to include six bacteriophages as compared to three bacteriophages in CK570. Bacteriophage cocktail CK618, was prepared such that all bacteriophages had equivalent titers in the final cocktail. The cocktail was then mixed with bacteria to obtain final titers of 1×10^6 plaque-forming unit (PFU)/mL/phage for the cocktail and 1×10^5 colony-forming unit (CFU)/mL for the bacteria, resulting in a multiplicity of infection (MOI) of 10 for each bacteriophage in a sample. Briefly, 5 μl of each sample (CK618 alone, CK618 and antibiotics, antibiotics alone, or medium alone) was added to 5 μl of optical density (OD)-normalized bacterial isolate and 40 μl LB medium. Reactions were incubated at 37° C. with shaking and OD measurements were taken each hour for 20 hours.
(§4) Host range percentage is the percent of isolates that responded to treatment of antibiotics or CK618. In the case of the 88-isolate panel, results were analyzed on the complete panel as well as the subset of classified as multidrug-resistant (MDR) (n=21) and beta-lactam-resistant (n=31).
(§5) The first assay used a panel of 88 contemporaneous isolates. Twenty-one of those strains are classified as MDR, with resistance to 3 or more antibiotic classes. […] The second assay used the panel made up of a 300-strain clinical isolate panel with an additional 4 strains of interest.
(§6) Antibiotic concentrations tested were determined by using CLSI or EUCAST breakpoints at concentrations that kill susceptible strains but allow intermediate or resistant strains to grow in the standard AST microdilution assay (Table 27). LBP-EC01 v.2 was combined with bacteria resulting in a MO of 10 for each bacteriophage in a sample. In the case of the 88-isolate panel, results were analyzed on the complete panel as well as the subset of isolates classified as multidrug-resistant (MDR) (n=21) and beta-lactam-resistant (n=31).

[2] = tested on: 88 urinary tract infection E. coli isolates; format: cell-based, Escherichia coli; settings: for Host Range % on MDR Subset (n = 21), Combination: Antibiotic + LBP-EC01 v.2 / Host Range % on all Strains (n = 88), Combination: Antibiotic + LBP-EC01 v.2 / Host Range % on Beta-lactam-Resistant Subset (n = 31), Combination: Antibiotic + LBP-EC01 v.2: antibiotic combined with LBP-EC01 v.2; for Host Range % on all Strains (n = 88), Combination: Antibiotic + CK618 v.2: antibiotic at breakpoint concentration plus cocktail 1 × 10^6 PFU/ml per bacteriophage
Description: as §1, §2, §3, §4, §5, §6

[3] = 88-isolate panel, listed as Fosfomycin 8
[4] = 88-isolate panel, listed as Fosfomycin 64
[5] = 88-isolate panel, MDR subset, single agent
[6] = 88-isolate panel, all strains, single agent
[7] = 88-isolate panel, beta-lactam-resistant subset
[8] = 88-isolate panel, beta-lactam-resistant subset, single agent
[9] = antibiotic at breakpoint concentration (Table 17), cocktail 1 × 10^6 PFU/ml per bacteriophage, MOI 10

C[C@@H]1O[C@@H]1P(=O)(O)O [Fosfomycin]
host range performance compared with antibiotics / combination (in words) ([1]; 88- and 304-isolate panels, all, MDR and beta-lactam-resistant strains): strong activity across all strains
Host range % on MDR subset (n = 93), Combination: Antibiotic + LBP-CK618 ([1]; 304-isolate panel): 96.8%
Host range % on MDR subset (n = 93), Single agent treatment ([1]; 304-isolate panel): 83.9%
Host range % on beta-lactam-resistant subset (n = 91), Combination: Antibiotic + LBP-CK618 ([1]; 304-isolate panel): 96.7%
Host range % on beta-lactam-resistant subset (n = 91), Single agent treatment ([1]; 304-isolate panel): 86.8%
Host Range % on MDR Subset (n = 93), Combination Antibiotic + LBP-EC01 v.2 ([1]; 304-isolate panel, MDR subset, antibiotic combined with LBP-EC01 v.2): 96.8%
Host Range % on all Strains (n = 304), Combination: Antibiotic + LBP-EC01 v.2 ([1]; 304-isolate panel, all strains, antibiotic combined with LBP-EC01 v.2): 97.0%
Host Range % on all Strains (n = 304), Single agent treatment ([1]; 304-isolate panel, all strains, single agent): 87.5%
Host Range % on Beta-lactam-Resistant Subset (n = 91), Combination: Antibiotic + LBP-EC01 v.2 ([1]; 304-isolate panel, beta-lactam-resistant subset, antibiotic combined with LBP-EC01 v.2): 96.7%
Host range % on beta-lactam-resistant subset (n = 91), Single agent treatment ([1]; 304-isolate panel, beta-lactam-resistant subset, single agent): 86.8%
Host Range % on MDR Subset (n = 21), Combination: Antibiotic + LBP-EC01 v.2 ([2]; 88-isolate panel, MDR subset, listed as Fosfomycin 8): 95.2%
Host Range % on MDR Subset (n = 21), Combination: Antibiotic + LBP-EC01 v.2 ([2]; 88-isolate panel, MDR subset, listed as Fosfomycin 64): 100.0%
Host Range % on MDR Subset (n = 21), Single agent treatment ([2]; 88-isolate panel, MDR subset, single agent, listed as Fosfomycin 8): 90.5%
Host Range % on MDR Subset (n = 21), Single agent treatment ([2]; 88-isolate panel, MDR subset, single agent, listed as Fosfomycin 64): 96.8%
Host Range % on all Strains (n = 88), Combination: Antibiotic + LBP-EC01 v.2 ([2]; 88-isolate panel, all strains, listed as Fosfomycin 8): 93.9%
Host Range % on all Strains (n = 88), Combination: Antibiotic + LBP-EC01 v.2 ([2]; 88-isolate panel, all strains, listed as Fosfomycin 64): 98.5%
Host Range % on all Strains (n = 88), Single agent treatment ([2]; 88-isolate panel, all strains, single agent, listed as Fosfomycin 8): 85.2%
Host Range % on all Strains (n = 88), Single agent treatment ([2]; 88-isolate panel, all strains, single agent, listed as Fosfomycin 64): 93.2%
Host Range % on Beta-lactam-Resistant Subset (n = 31), Combination: Antibiotic + LBP-EC01 v.2 ([2]; 88-isolate panel, beta-lactam-resistant subset, listed as Fosfomycin 8): 94.6%
Host Range % on Beta-lactam-Resistant Subset (n = 31), Combination: Antibiotic + LBP-EC01 v.2 ([2]; 88-isolate panel, beta-lactam-resistant subset, listed as Fosfomycin 64): 100.0%
Host Range % on Beta-lactam-Resistant Subset (n = 31), Single agent treatment ([2]; 88-isolate panel, beta-lactam-resistant subset, single agent, listed as Fosfomycin 8): 87.1%
Host Range % on Beta-lactam-Resistant Subset (n = 31), Single agent treatment ([2]; 88-isolate panel, beta-lactam-resistant subset, single agent, listed as Fosfomycin 64): 95.7%
Host Range % on Beta-lactam-Resistant Subset (n = 31), Combination: Antibiotic + CK618 v.2 [2, 3]: 94.6%
Host Range % on Beta-lactam-Resistant Subset (n = 31), Single agent treatment [2, 3]: 87.1%
Host Range % on MDR Subset (n = 21), Combination: Antibiotic + CK618 v.2 [2, 3]: 95.2%
Host Range % on MDR Subset (n = 21), Single agent treatment [2, 3]: 90.5%
Host Range % on Beta-lactam-Resistant Subset (n = 31), Combination: Antibiotic + CK618 v.2 [2, 4]: 100.0%
Host Range % on Beta-lactam-Resistant Subset (n = 31), Single agent treatment [2, 4]: 95.7%
Host Range % on MDR Subset (n = 21), Combination: Antibiotic + CK618 v.2 [2, 4]: 100.0%
Host Range % on MDR Subset (n = 21), Single agent treatment [2, 4]: 96.8%
Host Range % on all Strains (n = 88), Single agent treatment ([2]; antibiotic at breakpoint concentration (Table 17), cocktail 1 × 10^6 PFU/ml per bacteriophage, MOI 10, listed as Fosfomycin 8): 85.2%
Host Range % on all Strains (n = 88), Single agent treatment ([2]; antibiotic at breakpoint concentration (Table 17), cocktail 1 × 10^6 PFU/ml per bacteriophage, MOI 10, listed as Fosfomycin 64): 93.2%
Host Range % on all Strains (n = 88), Combination: Antibiotic + CK618 v.2 ([2]; listed as Fosfomycin 8): 93.9%
Host Range % on all Strains (n = 88), Combination: Antibiotic + CK618 v.2 ([2]; listed as Fosfomycin 64): 98.5%

CO/N=C(\C(=O)N[C@@H]1C(=O)N2C(C(=O)O)=C(CSc3nc(=O)c(=O)[nH]n3C)CS[C@H]12)c1csc(N)n1 [Ceftriaxone]
Host Range % on Beta-lactam-Resistant Subset (n = 31), Combination: Antibiotic + CK618 v.2 ([2]; 88-isolate panel): 81.7%
Host Range % on Beta-lactam-Resistant Subset (n = 31), Single agent treatment ([2]; 88-isolate panel): 15.1%
Host Range % on MDR Subset (n = 21), Combination: Antibiotic + CK618 v.2 ([2]; 88-isolate panel): 77.8%
Host Range % on MDR Subset (n = 21), Single agent treatment ([2]; 88-isolate panel): 20.6%
Host Range % on MDR Subset (n = 21), Combination: Antibiotic + LBP-EC01 v.2 ([2]; 88-isolate panel, MDR subset): 77.8%
Host Range % on MDR Subset (n = 21), Single agent treatment [2, 5]: 20.6%
Host Range % on all Strains (n = 88), Combination: Antibiotic + LBP-EC01 v.2 ([2]; 88-isolate panel, all strains): 92.4%
Host Range % on all Strains (n = 88), Single agent treatment [2, 6]: 64.4%
Host Range % on Beta-lactam-Resistant Subset (n = 31), Combination: Antibiotic + LBP-EC01 v.2 [2, 7]: 81.7%
Host Range % on Beta-lactam-Resistant Subset (n = 31), Single agent treatment [2, 8]: 15.1%
Host Range % on all Strains (n = 88), Single agent treatment [2, 9]: 64.4%
Host Range % on all Strains (n = 88), Combination: Antibiotic + CK618 v.2 [2]: 92.4%

C=CC1=C(C(=O)O)N2C(=O)[C@@H](NC(=O)/C(=N\O)c3csc(N)n3)[C@H]2SC1 [Cefdinir]
Host Range % on Beta-lactam-Resistant Subset (n = 31), Combination: Antibiotic + CK618 v.2 ([2]; 88-isolate panel): 78.5%
Host Range % on Beta-lactam-Resistant Subset (n = 31), Single agent treatment ([2]; 88-isolate panel): 12.9%
Host Range % on MDR Subset (n = 21), Combination: Antibiotic + CK618 v.2 ([2]; 88-isolate panel): 74.6%
Host Range % on MDR Subset (n = 21), Single agent treatment ([2]; 88-isolate panel): 14.3%
Host Range % on MDR Subset (n = 21), Combination: Antibiotic + LBP-EC01 v.2 ([2]; 88-isolate panel, MDR subset): 74.6%
Host Range % on MDR Subset (n = 21), Single agent treatment [2, 5]: 14.3%
Host Range % on all Strains (n = 88), Combination: Antibiotic + LBP-EC01 v.2 ([2]; 88-isolate panel, all strains): 87.5%
Host Range % on all Strains (n = 88), Single agent treatment [2, 6]: 48.9%
Host Range % on Beta-lactam-Resistant Subset (n = 31), Combination: Antibiotic + LBP-EC01 v.2 [2, 7]: 78.5%
Host Range % on Beta-lactam-Resistant Subset (n = 31), Single agent treatment [2, 8]: 12.9%
Host Range % on all Strains (n = 88), Single agent treatment [2, 9]: 48.9%
Host Range % on all Strains (n = 88), Combination: Antibiotic + CK618 v.2 [2]: 87.5%
